According to US20090163578A1, “NOVEL MODIFICATION OF IMMUNOMODULATORY PROTEIN” (UNIVERSITY OF MEDICINE AND DENTISTRY OF NEW JERSEY, priority 2004, published 2009):

Molecular target: T1, TRPM7/ChaK1 kinase domain (purified recombinant ChaK1-cat) (Mus musculus, UniProt Q923J1)
T1 construct: Expression and purification of recombinant ChaK1 kinase domain was performed as described; made in house; host or cells: bacteria
T1 sequence (Q923J1 1592-1822 limits assumed): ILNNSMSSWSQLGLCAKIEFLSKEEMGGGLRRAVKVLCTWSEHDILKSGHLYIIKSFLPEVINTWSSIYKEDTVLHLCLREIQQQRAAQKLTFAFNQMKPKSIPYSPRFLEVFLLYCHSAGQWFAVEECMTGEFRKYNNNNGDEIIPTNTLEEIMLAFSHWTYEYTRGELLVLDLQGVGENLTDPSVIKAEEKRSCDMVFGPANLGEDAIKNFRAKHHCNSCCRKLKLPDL
Assay: ChaK1-cat kinase activity: phosphorylation of myelin basic protein with [γ-33P]ATP, SDS-PAGE and autoradiography
Assay type: biochemical
Description: The reaction was performed using purified recombinant ChaK1-cat and myelin basic protein. The samples were analyzed by SDS-PAGE and autoradiography; and
The bands corresponding to phosphorylated myelin basic protein (on the autoradiogram shown in B) were quantified using the Kodak 1D imaging program.
Protein samples were incubated in phosphorylation mixture consisting of 50 mM HEPES-KOH (pH 7.4), 10 mM MgCl2, 4 mM MnCl2, 0.5 mM CaCl2 (unless stated otherwise), 100 μM ATP, and 2 μCi of [γ-^33P]ATP (specific activity of 3000 Ci/mmol) with 0.1 μg of purified recombinant ChaK1. In assays involving annexin 0.5 μg of annexin was used. The reactions were run at 30° C. for 5 min and were terminated by incubation in an ice/water bath and addition of Laemmli sample buffer. Samples were boiled for 5 min and analyzed by SDS-PAGE and autoradiography.
We analyzed the sensitivity of ChaK1 to some known inhibitors of conventional protein kinases.

Row | Structure (SMILES) | IC50 | effect on the kinase activity of ChaK1 (concentrations up to 0.1 mM (FIG. 6B)) | inhibitory effect on ChaK1 (staurosporine even at the concentration of 100 μM (FIG. 6B))
1 | CC(=O)c1c(O)c(C)c(O)c(Cc2c(O)c3c(c(C(=O)/C=C/c4ccccc4)c2O)OC(C)(C)C=C3)c1O [rottlerin] | ~35 µM |  | 
2 | CN[C@@H]1C[C@H]2O[C@@](C)([C@@H]1OC)n1c3ccccc3c3c4c(c5c6ccccc6n2c5c31)C(=O)NC4 [staurosporine] |  | does not have any effect | did not produce any inhibitory effect
